Test results reported in US8952024B2, “Herbicidal pyrimidone derivatives” (E I du Pont de Nemours and Company, priority 2009, dated 2015).

Each molecule was assayed on giant foxtail (Setaria faberii) (assay: Test B pre-/postemergence plant response). Conditions: Postemergence, 125 g ai/ha; scale 0 to 100 (0 no effect, 100 complete control).
Type: in vivo
Method in brief: (§1)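 Plants treated either at seeding (loam/sand soil) or postemergence at 2 to 18 cm height, using a surfactant-containing non-phytotoxic solvent formulation. Evaluation was visual after 13 to 15 days, 0 to 100 scale relative to controls.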
With `CCCn1c(-c2cccc(Br)c2)ncc(C(=O)C2=C(O)CCCC2=O)c1=O` [Compound 141] the “Plant response rating, Foxtail, Giant” value was 80.

Same assay, conditions: Postemergence, 250 g ai/ha; scale 0 to 100 (0 no effect, 100 complete control); 13 to 15 days
`CCCn1c(-c2cccc(Br)c2)ncc(C(=O)C2=C(O)CCCC2=O)c1=O` [Compound 141] was tested, and the “Plant response rating, Foxtail, Giant” value was 85.

These molecules were tested on downy bromegrass (Bromus tectorum) (assay: Test B pre-/postemergence plant response). Conditions: 62 g ai/ha, postemergence; 0 is no effect, 100 is complete control; 13 to 15 days.
Type: in vivo
Method in brief: as §1
With `CCCn1c(-c2cccc(Br)c2)ncc(C(=O)C2=C(O)CCCC2=O)c1=O` [Compound 141] the “Bromegrass, Downy plant response rating (0 to 100 scale)” value was 5.

Same assay, conditions: Postemergence, 31 g ai/ha; 0 to 100 scale (0 no effect, 100 complete control)
With `CCCn1c(-c2cccc(Br)c2)ncc(C(=O)C2=C(O)CCCC2=O)c1=O` [Compound 141] the “Plant response rating, Bromegrass, Downy” value was 0.

Same assay, conditions: Postemergence, 125 g ai/ha; scale 0 to 100 (0 no effect, 100 complete control)
With `CCCn1c(-c2cccc(Br)c2)ncc(C(=O)C2=C(O)CCCC2=O)c1=O` [Compound 141] the “Plant response rating, Bromegrass, Downy” value was 10.

Same assay, conditions: Postemergence, 250 g ai/ha; scale 0 to 100 (0 no effect, 100 complete control); 13 to 15 days
For `CCCn1c(-c2cccc(Br)c2)ncc(C(=O)C2=C(O)CCCC2=O)c1=O` [Compound 141], the “Plant response rating, Bromegrass, Downy” value was 45.

These molecules were tested on blackgrass (Alopecurus myosuroides) (assay: Test B pre-/postemergence plant response). Conditions: 62 g ai/ha, postemergence; 0 is no effect, 100 is complete control; 13 to 15 days.
Type: in vivo
Method in brief: as §1
In the case of `CCCn1c(-c2cccc(Br)c2)ncc(C(=O)C2=C(O)CCCC2=O)c1=O` [Compound 141], the “Blackgrass plant response rating (0 to 100 scale)” value is reported as 5.

Same assay, conditions: Postemergence, 31 g ai/ha; 0 to 100 scale (0 no effect, 100 complete control)
`CCCn1c(-c2cccc(Br)c2)ncc(C(=O)C2=C(O)CCCC2=O)c1=O` [Compound 141] was tested, and the “Plant response rating, Blackgrass” value was 5.

Same assay, conditions: Postemergence, 125 g ai/ha; scale 0 to 100 (0 no effect, 100 complete control)
For `CCCn1c(-c2cccc(Br)c2)ncc(C(=O)C2=C(O)CCCC2=O)c1=O` [Compound 141], the “Plant response rating, Blackgrass” value was 10.

Same assay, conditions: Postemergence, 250 g ai/ha; scale 0 to 100 (0 no effect, 100 complete control); 13 to 15 days
`CCCn1c(-c2cccc(Br)c2)ncc(C(=O)C2=C(O)CCCC2=O)c1=O` [Compound 141] was tested, and the “Plant response rating, Blackgrass” value was 25.

These molecules were tested on green foxtail (Setaria viridis) (assay: Test B pre-/postemergence plant response). Conditions: 62 g ai/ha, postemergence; 0 is no effect, 100 is complete control; 13 to 15 days.
Type: in vivo
Method in brief: as §1
In the case of `CCCn1c(-c2cccc(Br)c2)ncc(C(=O)C2=C(O)CCCC2=O)c1=O` [Compound 141], the “Foxtail, Green plant response rating (0 to 100 scale)” value is reported as 75.

Same assay, conditions: Postemergence, 31 g ai/ha; 0 to 100 scale (0 no effect, 100 complete control)
With `CCCn1c(-c2cccc(Br)c2)ncc(C(=O)C2=C(O)CCCC2=O)c1=O` [Compound 141] the “Plant response rating, Foxtail, Green” value was 50.

Same assay, conditions: Postemergence, 125 g ai/ha; scale 0 to 100 (0 no effect, 100 complete control)
For `CCCn1c(-c2cccc(Br)c2)ncc(C(=O)C2=C(O)CCCC2=O)c1=O` [Compound 141], the “Plant response rating, Foxtail, Green” value was 90.

Same assay, conditions: Postemergence, 250 g ai/ha; scale 0 to 100 (0 no effect, 100 complete control); 13 to 15 days
`CCCn1c(-c2cccc(Br)c2)ncc(C(=O)C2=C(O)CCCC2=O)c1=O` [Compound 141] was tested, and the “Plant response rating, Foxtail, Green” value was 90.

What follows are molecules tested on Surinam grass (Brachiaria decumbens) (assay: Test B pre-/postemergence plant response). Conditions: 62 g ai/ha, postemergence; 0 is no effect, 100 is complete control; 13 to 15 days.
Type: in vivo
Method in brief: as §1
In the case of `CCCn1c(-c2cccc(Br)c2)ncc(C(=O)C2=C(O)CCCC2=O)c1=O` [Compound 141], the “Surinam Grass plant response rating (0 to 100 scale)” value is reported as 65.

Same assay, conditions: Postemergence, 31 g ai/ha; 0 to 100 scale (0 no effect, 100 complete control)
`CCCn1c(-c2cccc(Br)c2)ncc(C(=O)C2=C(O)CCCC2=O)c1=O` [Compound 141] was tested, and the “Plant response rating, Surinam Grass” value was 40.

Same assay, conditions: Postemergence, 125 g ai/ha; scale 0 to 100 (0 no effect, 100 complete control)
In the case of `CCCn1c(-c2cccc(Br)c2)ncc(C(=O)C2=C(O)CCCC2=O)c1=O` [Compound 141], the “Plant response rating, Surinam Grass” value is reported as 70.

Same assay, conditions: Postemergence, 250 g ai/ha; scale 0 to 100 (0 no effect, 100 complete control); 13 to 15 days
`CCCn1c(-c2cccc(Br)c2)ncc(C(=O)C2=C(O)CCCC2=O)c1=O` [Compound 141] was tested, and the “Plant response rating, Surinam Grass” value was 75.

What follows are molecules tested on bermudagrass (Cynodon dactylon) (assay: Test B pre-/postemergence plant response). Conditions: 62 g ai/ha, postemergence; 0 is no effect, 100 is complete control; 13 to 15 days.
Type: in vivo
Method in brief: as §1
`CCCn1c(-c2cccc(Br)c2)ncc(C(=O)C2=C(O)CCCC2=O)c1=O` [Compound 141] was tested, and the “Bermudagrass plant response rating (0 to 100 scale)” value was 85.

Same assay, conditions: Postemergence, 31 g ai/ha; 0 to 100 scale (0 no effect, 100 complete control)
`CCCn1c(-c2cccc(Br)c2)ncc(C(=O)C2=C(O)CCCC2=O)c1=O` [Compound 141] was tested, and the “Plant response rating, Bermudagrass” value was 80.

Same assay, conditions: Postemergence, 125 g ai/ha; scale 0 to 100 (0 no effect, 100 complete control)
For `CCCn1c(-c2cccc(Br)c2)ncc(C(=O)C2=C(O)CCCC2=O)c1=O` [Compound 141], the “Plant response rating, Bermudagrass” value was 85.

Same assay, conditions: Postemergence, 250 g ai/ha; scale 0 to 100 (0 no effect, 100 complete control); 13 to 15 days
For `CCCn1c(-c2cccc(Br)c2)ncc(C(=O)C2=C(O)CCCC2=O)c1=O` [Compound 141], the “Plant response rating, Bermudagrass” value was 90.

The molecules below were run on corn (Zea mays) (assay: Test B pre-/postemergence plant response). Conditions: 62 g ai/ha, postemergence; 0 is no effect, 100 is complete control; 13 to 15 days.
Type: in vivo
Method in brief: as §1
With `CCCn1c(-c2cccc(Br)c2)ncc(C(=O)C2=C(O)CCCC2=O)c1=O` [Compound 141] the “Corn plant response rating (0 to 100 scale)” value was 45.

Same assay, conditions: Postemergence, 31 g ai/ha; 0 to 100 scale (0 no effect, 100 complete control)
`CCCn1c(-c2cccc(Br)c2)ncc(C(=O)C2=C(O)CCCC2=O)c1=O` [Compound 141] was tested, and the “Plant response rating, Corn” value was 0.

Same assay, conditions: Postemergence, 125 g ai/ha; scale 0 to 100 (0 no effect, 100 complete control)
With `CCCn1c(-c2cccc(Br)c2)ncc(C(=O)C2=C(O)CCCC2=O)c1=O` [Compound 141] the “Plant response rating, Corn” value was 45.

Same assay, conditions: Postemergence, 250 g ai/ha; scale 0 to 100 (0 no effect, 100 complete control); 13 to 15 days
For `CCCn1c(-c2cccc(Br)c2)ncc(C(=O)C2=C(O)CCCC2=O)c1=O` [Compound 141], the “Plant response rating, Corn” value was 45.
